# Measured values: patent US11046716B2, “Beta-lactamase inhibitors” (priority 2015, dated 2021)
# pIC50: −log10 of the molar value.
# What was measured:
# [1] = tested on: K. pneumoniae expressing the class A carbapenemase KPC-2 and the class B carbapenemase VIM-4; test: Broth microdilution MIC assay with meropenem, K. pneumoniae KPC-2 and VIM-4; assay type: cell-based; conditions: Fixed Mero (meropenem) 4 μg/mL; K. p. A-1797 KPC-2 VIM-4
# How it was run: (§1)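 Test compounds in 2-fold dilutions (16 to 0.125 μg/mL final) in CAMHB were combined with a β-lactam at a static 4 μg/ml final. Plates were inoculated per CLSI broth microdilution with the β-lactamase-producing strain (pre-grown 3-5 h) and incubated 16-20 h at 37° C. MIC of test compound was read visually.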
# AmpC = target: T1, AmpC (Enterobacter cloacae, UniProt P05364); test: β-lactamase enzyme inhibition assay, p99 AmpC (nitrocefin substrate); assay type: biochemical
# T1 construct: made in house; host or cells: E. coli BL21(DE3)
# T1 sequence (P05364 21-381): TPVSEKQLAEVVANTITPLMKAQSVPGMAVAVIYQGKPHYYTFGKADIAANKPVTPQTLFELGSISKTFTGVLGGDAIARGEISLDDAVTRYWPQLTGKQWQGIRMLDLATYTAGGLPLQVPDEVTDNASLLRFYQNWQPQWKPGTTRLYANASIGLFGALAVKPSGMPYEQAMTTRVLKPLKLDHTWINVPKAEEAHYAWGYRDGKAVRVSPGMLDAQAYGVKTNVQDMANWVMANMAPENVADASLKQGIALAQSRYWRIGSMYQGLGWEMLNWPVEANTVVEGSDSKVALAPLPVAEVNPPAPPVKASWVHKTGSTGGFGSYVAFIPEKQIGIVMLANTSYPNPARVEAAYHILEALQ
# How it was run: (§2)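 Native untagged enzymes expressed in E. coli BL21(DE3), purified by cation exchange and gel filtration. Inhibitor preincubated with enzyme 15 min at 37 °C; hydrolysis followed by absorbance. IC50 as concentration halving initial hydrolysis rate versus inhibitor-free wells.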
# [2] = tested on: K. pneumoniae expressing the Class A carbapenemase KPC-2; test: Broth microdilution MIC assay with meropenem, K. pneumoniae KPC-2; assay type: cell-based; conditions: Fixed Mero (meropenem) 4 μg/mL; K. p. 156319 KPC-3
# How it was run: as §1
# [3] = tested on: K. pneumoniae producing the Class D carbapenemase OXA-48; test: Broth microdilution MIC assay with meropenem, K. pneumoniae OXA-48; assay type: cell-based; conditions: Fixed Mero (meropenem) 4 μg/mL; K. p. 11978 OXA-48
# How it was run: as §1
# KPC-2 = target: T2, KPC-2 (Klebsiella pneumoniae, UniProt Q9F663); test: β-lactamase enzyme inhibition assay, KPC-2 (imipenem substrate); assay type: biochemical; conditions: Class A; imipenem substrate, 300 nm; read-out: KPC-2
# T2 construct: made in house; host or cells: E. coli BL21(DE3)
# T2 sequence (Q9F663 25-293, looked up): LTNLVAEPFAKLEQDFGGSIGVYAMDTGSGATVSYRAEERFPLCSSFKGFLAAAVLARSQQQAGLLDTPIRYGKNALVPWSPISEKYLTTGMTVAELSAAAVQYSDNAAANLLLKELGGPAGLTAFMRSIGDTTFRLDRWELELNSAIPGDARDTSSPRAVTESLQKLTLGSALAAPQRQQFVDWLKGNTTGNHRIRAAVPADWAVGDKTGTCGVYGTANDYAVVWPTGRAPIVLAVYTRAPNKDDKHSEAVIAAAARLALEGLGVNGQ
# How it was run: as §2, with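 “absorbance: imipenem at 300 nm for KPC-2, cefotaxime at 260 nm for SHV-5.” for “absorbance.”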
# OXA-48 = OXA-48 (UniProt Q6XEC0); test: β-lactamase enzyme inhibition assay, Class D oxacillinase; assay type: biochemical; conditions: read-out: OXA-48
# [4] = tested on: P. aeruginosa expressing the Class B carbapenemase VIM-2; test: Broth microdilution MIC assay with meropenem, P. aeruginosa VIM-2; assay type: cell-based; conditions: Fixed Mero (meropenem) 4 μg/mL; P. aerug. 2775 VIM-2
# How it was run: as §1
# [5] = tested on: E. cloacae expressing the Class C P99; test: Broth microdilution MIC assay with ceftazidime, E. cloacae P99; assay type: cell-based; conditions: Fixed CAZ (ceftazidime) 4 μg/mL; E. cl. 144200 p99 AmpC
# How it was run: as §1
# VIM-2 = target: T3, VIM-2 (Escherichia coli, UniProt Q5U7L7); test: β-lactamase enzyme inhibition assay, VIM-2 (nitrocefin substrate); assay type: biochemical; conditions: Class B; nitrocefin substrate, 486 nm; read-out: VIM-2
# T3 construct: made in house; host or cells: E. coli BL21(DE3)
# How it was run: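 Purified VIM-2 preincubated with inhibitor for 15 min at 37° C, then nitrocefin (100 μM final) added and absorbance at 486 nm followed for 10 min. Maximum hydrolysis rates compared with inhibitor-free controls; IC50 fitted from percent inhibition across inhibitor concentrations.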
# SHV-5 = target: T4, SHV-5 (Klebsiella pneumoniae, UniProt P0A3M1); test: β-lactamase enzyme inhibition assay, SHV-5 (cefotaxime substrate); assay type: biochemical
# T4 construct: made in house; host or cells: E. coli BL21(DE3)
# T4 sequence (P0A3M1 22-286): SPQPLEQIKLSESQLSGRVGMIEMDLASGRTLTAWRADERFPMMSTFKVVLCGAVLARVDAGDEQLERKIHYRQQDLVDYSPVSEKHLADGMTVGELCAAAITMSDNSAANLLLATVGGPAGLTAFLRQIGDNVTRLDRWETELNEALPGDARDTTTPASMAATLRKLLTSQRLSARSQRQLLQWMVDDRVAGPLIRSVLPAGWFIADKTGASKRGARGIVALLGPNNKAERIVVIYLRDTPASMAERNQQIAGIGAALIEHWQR
# How it was run: as §2, with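 “absorbance: imipenem at 300 nm for KPC-2, cefotaxime at 260 nm for SHV-5.” for “absorbance.”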
# [6] = tested on: E. coli expressing the Class A Extended Spectrum Beta-Lactamase (ESBL) CTX-M-15; test: Broth microdilution MIC assay with ceftazidime, E. coli CTX-M-15; assay type: cell-based; conditions: Fixed CAZ (ceftazidime) 4 μg/mL; E. coli ESBL4 CTX-M-15
# How it was run: as §1
Structure (SMILES),MIC (μg/mL) of Exemplary Compounds in presence of fixed β-lactams: K. p. A-1797 KPC-2 VIM-4 [1],pIC50 (AmpC),MIC (μg/mL) of Exemplary Compounds in presence of fixed β-lactams: K. p. 156319 KPC-3 [2],MIC (μg/mL) of Exemplary Compounds in presence of fixed β-lactams: K. p. 11978 OXA-48 [3],pIC50 (KPC-2),pIC50 (OXA-48),MIC (μg/mL) of Exemplary Compounds in presence of fixed β-lactams: P. aerug. 2775 VIM-2 [4],MIC (μg/mL) of Exemplary Compounds in presence of fixed β-lactams: E. cl. 144200 p99 AmpC [5],pIC50 (VIM-2),pIC50 (SHV-5),MIC (μg/mL) of Exemplary Compounds in presence of fixed β-lactams: E. coli ESBL4 CTX-M-15 [6]
"O=C(Cn1cc(C2CNC2)nn1)N[C@H]1Cc2cccc(C(=O)O)c2OB1O [Example 90, (R)-3-(2-(4-(azetidin-3-yl)-1H-1,2,3-triazol-1-yl)acetamido)-2-hydroxy-3,4-dihydro-2H-benzo[e][1,2]oxaborinine-8-carboxylic acid]",B (B represents an MIC between 1 and 16 μg/mL inclusive),> 7.00,B (B represents an MIC between 1 and 16 μg/mL inclusive),B (B represents an MIC between 1 and 16 μg/mL inclusive),> 7.00,5.00 to 6.00,C (C represents an MIC of <1 μg/mL),C (C represents an MIC of <1 μg/mL),6.00 to 7.00,6.00 to 7.00,C (C represents an MIC of <1 μg/mL)
"N=C(N)N1CC(c2cn(CC(=O)N[C@H]3Cc4cccc(C(=O)O)c4OB3O)nn2)C1 [Example 91, (R)-3-(2-(4-(1-carbamimidoylazetidin-3-yl)-1H-1,2,3-triazol-1-yl)acetamido)-2-hydroxy-3,4-dihydro-2H-benzo[e][1,2]oxaborinine-8-carboxylic acid]",B (B represents an MIC between 1 and 16 μg/mL inclusive),> 7.00,C (C represents an MIC of <1 μg/mL),B (B represents an MIC between 1 and 16 μg/mL inclusive),> 7.00,5.00 to 6.00,B (B represents an MIC between 1 and 16 μg/mL inclusive),C (C represents an MIC of <1 μg/mL),6.00 to 7.00,> 7.00,C (C represents an MIC of <1 μg/mL)
"NCC(O)Cc1cn(CC(=O)N[C@H]2Cc3cccc(C(=O)O)c3OB2O)nn1 (stereo partly drawn) [Example 92, (3R)-3-(2-(4-(3-amino-2-hydroxypropyl)-1H-1,2,3-triazol-1-yl)acetamido)-2-hydroxy-3,4-dihydro-2H-benzo[e][1,2]oxaborinine-8-carboxylic acid]",B (B represents an MIC between 1 and 16 μg/mL inclusive),> 7.00,C (C represents an MIC of <1 μg/mL),B (B represents an MIC between 1 and 16 μg/mL inclusive),> 7.00,5.00 to 6.00,C (C represents an MIC of <1 μg/mL),C (C represents an MIC of <1 μg/mL),> 7.00,6.00 to 7.00,C (C represents an MIC of <1 μg/mL)
"N=C(N)NCC(O)Cc1cn(CC(=O)N[C@H]2Cc3cccc(C(=O)O)c3OB2O)nn1 (stereo partly drawn) [Example 93, (3R)-3-(2-(4-(3-guanidino-2-hydroxypropyl)-1H-1,2,3-triazol-1-yl)acetamido)-2-hydroxy-3,4-dihydro-2H-benzo[e][1,2]oxaborinine-8-carboxylic acid]",B (B represents an MIC between 1 and 16 μg/mL inclusive),> 7.00,B (B represents an MIC between 1 and 16 μg/mL inclusive),B (B represents an MIC between 1 and 16 μg/mL inclusive),> 7.00,5.00 to 6.00,C (C represents an MIC of <1 μg/mL),C (C represents an MIC of <1 μg/mL),6.00 to 7.00,> 7.00,C (C represents an MIC of <1 μg/mL)
